Experimental findings from the supplement of paper PMC5844555 are described below.

What all share (test): 3' UTR reporter interaction score (median-centred robust z-score of log2 firefly/Renilla activity); higher = less repression of the 3' UTR reporter
What all share (conditions): HEK293T; 48 h

One series concerns NOTCH1. In a few lines:
(§1)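 The interaction score is based on the log-transformed firefly/Renilla luciferase ratio, scaled as a robust z-score within each plate by median and median absolute deviation and median-centred for each miRNA; more negative scores indicate interaction. It was averaged over at least two independent screens. Readings were taken 48 h after HEK293T cells (10,000/well, 96-well plates) were co-transfected by DharmaFECT Duo with 100 ng firefly luc2P 3' UTR reporter, 20 ng Renilla pRL-TK and 2.5 pmol miRNA mimic.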

Another series concerns BRCA2. The essentials:
as §1

The subject of another series is ZEB2. In a few lines:
as §1

For another series, the system named is FBXW7. The essentials:
as §1

The test system of the next series is EZH2. In a few lines:
as §1

Another series deals with TP53. In a few lines: as §1
Another series concerns PHF6. The essentials: as §1
For another series, the system named is PHOX2B. The essentials: as §1
In the next series the test system is HRAS. The essentials:
as §1

Another series concerns MYCN. In a few lines:
as §1

The test system of the next series is MYC. The essentials: as §1
In another series the test system is MYT1L. In a few lines:
as §1

The test system of a further series is RB1. The essentials: as §1
A further series has as its system MYB. In a few lines:
as §1

As for AAAGUGCCUCCUUUUAGAGUGU, the “3' UTR reporter interaction score” value was 0.0165 in the series with NOTCH1; -0.0588 in the series with BRCA2; 0.00481 in the series with ZEB2; 0.988 with FBXW7; -0.239 in the series on EZH2; -0.0121 in the series with TP53. Also, the “3' UTR reporter interaction score” value in the series on PHF6 was 1.02; in the series on PHOX2B, -1.07; in the series on HRAS it was 0.107; in the series with MYCN, 1.27; with MYC, 0.329; in the series with MYT1L, 0.764. The “3' UTR reporter interaction score” value is -0.21 with RB1 and -0.416 in the series on MYB.
With AAAGUGCUGCGACAUUUGAGCGU, the “3' UTR reporter interaction score” value in the series on NOTCH1 is 1.03; in the series with BRCA2 it was 0.603; with ZEB2, -0.121; in the series on FBXW7, 0.296; in the series with EZH2 it was -1.36; with TP53, -1.1. The “3' UTR reporter interaction score” value in the series on PHF6 is 1.58; in the series with PHOX2B it was 0.221; in the series on HRAS, 0.79; in the series with MYCN it was 0.612; in the series with MYC it was 0.745; with MYT1L, -0.68. For the same sequence, the “3' UTR reporter interaction score” value is 1.06 with RB1 and -1.18 in the series on MYB.
For AAAGUGCUUCCCUUUGGACUGU, the “3' UTR reporter interaction score” value is 1.13 in the series with NOTCH1; 0.671 in the series on BRCA2; -0.113 in the series on ZEB2; 1.67 in the series with FBXW7; -0.72 in the series with EZH2; 0.0148 with TP53. Also, the “3' UTR reporter interaction score” value with PHF6 is 1.36; in the series with PHOX2B, 0.0276; with HRAS it was 0.194; with MYCN, -0.799; in the series on MYC it was -0.227; in the series with MYT1L, -1.48. For the same sequence, the “3' UTR reporter interaction score” value is 1.36 in the series on RB1 and -1.07 with MYB.
With AAAGUGCUUCCUUUUAGAGGG, the “3' UTR reporter interaction score” value was 1.06 in the series on NOTCH1; -0.12 with BRCA2; 0.554 with ZEB2; 0.755 with FBXW7; -1.28 in the series on EZH2; 0.0995 in the series with TP53. The “3' UTR reporter interaction score” value in the series with PHF6 was 0.188; in the series on PHOX2B it was 1.35; in the series with HRAS it was 0.261; with MYCN, -0.401; in the series on MYC, 0.194; in the series on MYT1L, -0.373. Besides, the figures for the “3' UTR reporter interaction score” value in the series with RB1 and in the series with MYB were 0.0746 and -0.541, respectively.
With AAAGUGCUUCCUUUUAGAGGGUU, the “3' UTR reporter interaction score” value in the series with NOTCH1 was 0.779; in the series on BRCA2, -0.282; in the series on ZEB2, 0.894; with FBXW7 it was 1.34; with EZH2, -1.12; in the series on TP53 it was -0.295. Further, the “3' UTR reporter interaction score” value in the series on PHF6 was 0.00103; with PHOX2B, 0.533; in the series with HRAS, 0.0494; in the series with MYCN, -0.338; in the series on MYC, -0.227; in the series with MYT1L, -0.468. Further, the entries for the “3' UTR reporter interaction score” value in the series with RB1 and in the series on MYB were 1.13 and -0.903, respectively.
Take AAAGUGCUUCCUUUUUGAGGG: the “3' UTR reporter interaction score” value with NOTCH1 is 0.985; in the series on BRCA2, 0.142; with ZEB2 it was 0.44; with FBXW7, 0.747; with EZH2 it was -0.296; in the series with TP53 it was 0.0321. The “3' UTR reporter interaction score” value in the series with PHF6 is -0.0231; in the series with PHOX2B, 1.32; in the series with HRAS it was -0.00896; in the series on MYCN, -0.0937; in the series on MYC it was 0.0093; in the series with MYT1L, -0.441. For the same sequence, the figures for the “3' UTR reporter interaction score” value in the series on RB1 and in the series on MYB were 1.02 and -0.87, respectively.
For AACACACCUGGUUAACCUCUUU, the “3' UTR reporter interaction score” value was -1.72 in the series on NOTCH1; 0.0379 in the series on BRCA2; 0.382 in the series on ZEB2; -0.274 with FBXW7; 0.419 with EZH2; 0.317 with TP53. In addition, the “3' UTR reporter interaction score” value in the series with PHF6 is -2.01; in the series with PHOX2B it was 0.138; in the series on HRAS, 0.473; with MYCN, 1.21; with MYC it was -0.499; with MYT1L, 0.591. For the same sequence, the results for the “3' UTR reporter interaction score” value in the series on RB1 and in the series on MYB were -0.572 and -0.0237, respectively.
With AACAGGUGACUGGUUAGACAA, the “3' UTR reporter interaction score” value with NOTCH1 is 1.15; in the series with BRCA2 it was -0.352; in the series with ZEB2 it was -0.428; with FBXW7, 1.13; with EZH2, 0.144; in the series on TP53 it was -0.34. The “3' UTR reporter interaction score” value is -0.792 in the series on PHF6; 2.14 in the series with PHOX2B; 0.125 in the series with HRAS; -1.32 in the series on MYCN; -1.37 in the series with MYC; -0.793 in the series on MYT1L. In addition, the “3' UTR reporter interaction score” value was -0.637 in the series with RB1 and -0.0471 in the series on MYB.
As to AACAUUCAACCUGUCGGUGAGU, the “3' UTR reporter interaction score” value was 0.774 in the series on NOTCH1; -1.56 with BRCA2; 1.39 in the series on ZEB2; 0.747 in the series on FBXW7; -0.0307 in the series with EZH2; -0.761 in the series with TP53. The “3' UTR reporter interaction score” value in the series on PHF6 is 0.226; in the series with PHOX2B, 0.334; with HRAS it was -0.974; with MYCN, -1.2; in the series with MYC it was -0.157; with MYT1L, 1.67. The “3' UTR reporter interaction score” value with RB1 was 0.216; in the series on MYB, 1.08.
